In patent US9409880B2, “Modulators of TLR3/dsRNA complex and uses thereof” (The Regents of the University of Colorado, a body corporate, priority 2011, dated 2016):

How the values were obtained:
TLR3 [1] = biological target: T1, TLR3 (Mus musculus, UniProt Q99MB1); test: In vitro TLR3 inhibition assay: Poly IC-induced NO production in RAW 264.7 cells; type: cell-based
T1 construct: endogenous in cells; host or cells: RAW 264.7
T1 sequence (Q99MB1 26-905): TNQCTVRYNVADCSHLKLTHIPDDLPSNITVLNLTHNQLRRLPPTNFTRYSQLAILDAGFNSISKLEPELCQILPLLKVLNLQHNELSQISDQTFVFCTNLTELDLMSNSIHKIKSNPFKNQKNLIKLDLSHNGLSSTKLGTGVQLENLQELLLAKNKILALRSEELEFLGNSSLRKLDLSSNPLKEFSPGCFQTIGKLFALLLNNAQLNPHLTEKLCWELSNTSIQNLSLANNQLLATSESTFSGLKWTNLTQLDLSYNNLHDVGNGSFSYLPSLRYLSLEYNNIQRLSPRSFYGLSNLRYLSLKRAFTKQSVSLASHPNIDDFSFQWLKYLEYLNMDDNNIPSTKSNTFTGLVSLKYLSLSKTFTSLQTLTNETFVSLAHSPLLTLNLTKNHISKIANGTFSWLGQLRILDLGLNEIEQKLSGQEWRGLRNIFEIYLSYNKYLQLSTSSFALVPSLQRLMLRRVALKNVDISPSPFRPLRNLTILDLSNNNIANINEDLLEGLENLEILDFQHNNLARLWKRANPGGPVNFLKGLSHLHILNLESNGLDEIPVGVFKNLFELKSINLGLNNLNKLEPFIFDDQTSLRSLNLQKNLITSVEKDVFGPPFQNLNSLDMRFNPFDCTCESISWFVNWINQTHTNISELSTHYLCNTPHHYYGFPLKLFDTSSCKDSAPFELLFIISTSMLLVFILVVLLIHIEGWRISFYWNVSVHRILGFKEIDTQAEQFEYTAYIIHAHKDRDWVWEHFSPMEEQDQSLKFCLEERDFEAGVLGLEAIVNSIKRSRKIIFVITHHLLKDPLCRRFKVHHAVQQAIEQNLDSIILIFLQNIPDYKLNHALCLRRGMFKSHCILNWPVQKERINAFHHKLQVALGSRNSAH
From the text: The initial hits (Figure A) were first evaluated using the present inventors' previously established high-throughput cell assay of TLR3 activation. See, for example, ACS Med. Chem. Lett. 2010, 1, 194 and Bioorg. Med. Chem. Lett., 2010, 20, 5411. Poly IC (Polyriboinosinic:polyribocytidylic acid) has been reported to selectively activate TLR3 signaling, resulting in the activation of nitric oxide synthase and the production nitric oxide (NO) in RAW 264.7 macrophage cells. The NO level was monitored as an indicator of Poly IC-induced TLR3 activation to evaluate the drug's inhibitory activity.
RAW 264.7 (Mouse leukaemic monocyte macrophage cell line) cells were grown in RPMI 1640 medium, supplemented with 10% FBS, penicillin (100 U/mL) and streptomycin ([…]). RAW cells were then planted in 96-well plates at 100,000 cells per well and grown for 24 h in the media descried previously at 37° C. in a 5% CO2 humidified incubator. After 24 h, non-adherent cells and media were removed and replaced with fresh RPMI 1640 medium (only RPMI). The adherent macrophages were treated with high molecular weight polyinosine-polycytidylic acid (Poly IC) (10 μg/mL) (Invivogen), an agonist of TLR3, and then added different concentrates of potential inhibitor. Two rows were only treated with Poly IC as an control. Plates were then incubated for an additional 24 h. Following incubation 100 μL of media was removed and added to flat black 96-well microfluor plates (Thermo Scientific, MA, USA). To each well, 10 μL of 2,3-diaminonaphthalene (0.05 mg/mL in 0.62 M aqueous HCl solution) was added and incubated for 15 min in the dark. The reaction was quenched by addition of 5 μL of a 3 M aqueous NaOH solution and the plate was read on Beckman Coulter DTX880 reader (Beckman Coulter, Calif., USA) with excitation at 365 nm and emission at 450 nm. The nitrite (a stable metabolite of nitric oxide) concentration was determined from a nitrite standard curve. The inhibition rate (%) of NO release was determined using the following formula: Inhibition (%)=[Poly IC(OD450)−Compounds (OD450)]/[Poly IC(OD450)−Control (OD450)]×100. The IC50 values for both inhibition and cytotoxicity were determined graphically using software Origin v7.5.

TLR3 [2] = biological target: T2, TLR3 (Homo sapiens, UniProt O15455); test: Fluorescence anisotropy assay, competition with Rhodamine labeled Poly IC; type: binding
T2 construct: purchased R &D
T2 sequence (O15455 24-904): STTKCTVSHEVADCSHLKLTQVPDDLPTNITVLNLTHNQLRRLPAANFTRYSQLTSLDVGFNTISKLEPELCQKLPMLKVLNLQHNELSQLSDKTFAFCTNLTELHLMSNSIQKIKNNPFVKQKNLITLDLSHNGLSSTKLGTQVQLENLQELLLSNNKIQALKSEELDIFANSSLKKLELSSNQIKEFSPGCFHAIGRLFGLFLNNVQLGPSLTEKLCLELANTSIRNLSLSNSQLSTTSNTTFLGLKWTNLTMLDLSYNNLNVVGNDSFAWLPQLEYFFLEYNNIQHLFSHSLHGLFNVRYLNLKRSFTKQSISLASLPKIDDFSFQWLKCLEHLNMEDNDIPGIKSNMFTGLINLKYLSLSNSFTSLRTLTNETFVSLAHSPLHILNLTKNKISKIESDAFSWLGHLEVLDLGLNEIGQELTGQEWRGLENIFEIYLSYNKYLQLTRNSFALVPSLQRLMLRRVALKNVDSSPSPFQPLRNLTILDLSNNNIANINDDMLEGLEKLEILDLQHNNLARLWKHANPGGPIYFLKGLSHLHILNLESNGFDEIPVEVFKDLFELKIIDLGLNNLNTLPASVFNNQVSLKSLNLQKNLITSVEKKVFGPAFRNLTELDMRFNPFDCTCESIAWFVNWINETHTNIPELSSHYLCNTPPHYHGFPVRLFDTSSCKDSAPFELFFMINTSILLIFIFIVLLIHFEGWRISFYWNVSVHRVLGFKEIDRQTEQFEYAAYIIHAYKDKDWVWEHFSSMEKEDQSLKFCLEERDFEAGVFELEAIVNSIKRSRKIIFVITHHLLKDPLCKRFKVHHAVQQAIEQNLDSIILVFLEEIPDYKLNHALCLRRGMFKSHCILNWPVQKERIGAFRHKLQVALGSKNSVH
Procedure: The anisotropy of Rhodamine labeled Poly IC increased from approximately 0.116 to 0.171 upon addition of TLR3 (excitation=546 nm; emission=576 nm).
In 500 μL Tris buffer (pH=7.2) add 5 μL (1 μg/mL) Rhodamine labeled Poly IC (Invivogen), test the anisotropy at excitation of 546 nm and emission of 576 nm (Horiba Fluorolog 3). An addition 3 μL (20 μM) of TLR3 (R &D) was added in the buffer, then test the anisotropy again. Following, 4a was added in the buffer from 0 to 68 μM, and the fluorescence anisotropy was tested when the concentration was changed.

[3] = whole cell inhibitory activity, Poly IC-induced NO, RAW 264.7, average ± SD, at least three independent tests
[4] = whole cell inhibitory activity, second part of Table 1 (R5/R6 series)
[5] = Poly IC-induced TLR3 activation, cell assay

Row | SMILES | IC50 (TLR3 [1]; [3]) [µM] | IC50 (TLR3 [1]; [4]) [µM] | IC50 (TLR3 [1]; [5]) [µM] | TLR3 binding competition with dsRNA (TLR3 [2])
1 | O=C(N[C@H](Cc1ccccc1)C(=O)O)c1cc2ccccc2s1 [Compound 1a, (R)-2-(benzo[b]thiophene-2-carboxamido)-3-phenylpropanoic acid] | > 155 | – | – | does not show any significant binding to TLR3
2 | O=C(O)[C@@H](Cc1ccc(O)cc1)NS(=O)(=O)c1cccc(F)c1 [Compound 18a, (R)-2-(3-fluorophenylsulfonamido)-3-(4-hydroxyphenyl)propanoic acid] | – | > 100 | – | –
3 | O=C(O)[C@H](Cc1ccc(O)cc1)NS(=O)(=O)c1cccc(F)c1 [Compound 18b, (S)-2-(3-fluorophenylsulfonamido)-3-(4-hydroxyphenyl)propanoic acid] | – | > 100 | – | –
4 | O=C(O)[C@@H](Cc1ccc(O)cc1)NS(=O)(=O)c1ccc(F)cc1 [Compound 19a, (R)-2-(4-fluorophenylsulfonamido)-3-(4-hydroxyphenyl)propanoic acid] | – | > 100 | – | –

More lines, main results first:

Row | IC50 (TLR3 [1]; [3]) [µM] | IC50 (TLR3 [1]; [4]) [µM] | IC50 (TLR3 [1]; [5]) [µM] | SMILES | TLR3 binding competition with dsRNA (TLR3 [2])
5 | – | > 100 | – | O=C(O)[C@H](Cc1ccc(O)cc1)NS(=O)(=O)c1ccc(F)cc1 [Compound 19b, (S)-2-(4-fluorophenylsulfonamido)-3-(4-hydroxyphenyl)propanoic acid] | –
6 | 145 ± 4 | – | 145 ± 3.7 | O=C(O)[C@@H](Cc1ccccc1)NS(=O)(=O)c1ccccc1F [Compound T5260630, reference compound] | –
7 | 154 ± 6 | – | 154 ± 5.9 | O=C(N[C@H](Cc1ccccc1)C(=O)O)c1cc2c(s1)CCCCC2 [Compound T5626448, reference compound] | –
